Experimental data reported in US9963433B2, “Anticancer drugs including the chemical structures of an androgen receptor ligand and a histone deacetylase inhibitor” (Wayne State University, priority 2016, dated 2018).

How the values were obtained:
DLC1 mRNA in LNCaP cells = assay: In situ HDACi activity: DLC1 mRNA in LNCaP cells; format: cell-based; conditions: 10 μM, 48 h, normalized to GAPDH mRNA, FIG. 2E
Protocol: (§1) FIGS. 2A-2F show measurement of intrinsic and in situ HDACi activities. […]. IC50 values were calculated from nonlinear regression plots using GraphPad Prism5 software. (2B) Enz, 1002 and 3-52 were tested against HeLa cell nuclear extract at 10 μM and 25 μM and TSA (1 μM) was used as positive control. […] Recombinant HDAC6 was incubated with each drug at the indicated concentrations. IC50 values were calculated from nonlinear regression plots using GraphPad Prism5 software. (2D) Enz, 1002 and 3-52 were tested against recombinant HDAC6 at 10 μM and 25 μM and TSA (1 μM) was used as positive control. […]
(§2) Cell Culture and Reagents. LNCaP and 22Rv1 cell lines were from American Type Culture Collection (Manassas, Va.). C4-2 cells were kindly provided by Dr. Edwin Sanchez (University of Toledo). LNCaP and C4-2 cells were routinely grown at 37° C. in 5% CO2 in RPMI 1640 medium supplemented with 10% FBS (Invitrogen); 100 units/ml penicillin, 100 μg/ml streptomycin, 2 mM L-glutamine mixture (Invitrogen); and sodium pyruvate (1 mM) (Invitrogen). 22Rv1 cells were grown in RPMI 1640 medium supplemented with 10% FBS (Invitrogen); 100 units/ml penicillin, 100 μg/ml streptomycin, 2 mM L-glutamine mixture (Invitrogen). Affinity-purified rabbit anti-human antibody to AR (sc-816) and mouse anti-human antibody to GAPDH (sc-47724) were purchased from Santa Cruz Biotechnology (Santa Cruz, Calif.). Affinity-purified rabbit anti-human antibody to Hsp90 (C45G5) #4877 and rabbit anti-human antibody to acetylated lysine #9441 were purchased from Cell Signaling Technology. R1881 was kindly provided by Dr. Stephan Patrick (Karmanos Cancer Institute). All experiments were conducted using phenol-red free growth media. For hormone depletion, cells were grown in phenol-red free RPMI 1640 medium supplemented with 10% charcoal stripped FBS (Sigma-Aldrich) which was heat inactivated at 56° C. for thirty minutes, and a mixture of 100 units/ml penicillin, 100 μg/ml streptomycin and 2 mM L-glutamine for 96 h.
(§3) RNA isolation, Reverse Transcription, and Real Time PCR. Total RNA was isolated from cells using the RNeasy Mini Kit (Qiagen). Reverse transcription PCR was then performed using 500 ng of total RNA with random primers and using the high-capacity complementary DNA Archive kit (Applied Biosystems). The complementary DNA from this reaction was measured using quantitative real time PCR using the StepONE Plus Real Time PCR system (Life Technologies Corporation, Carlsbad, Calif.). All reactions were performed in triplicate and normalized to glyceraldehyde-3-phosphate-dehydrogenase values in the same samples. All primers and Taqman probes were purchased from the applied Biosystems inventory (Invitrogen) (Patki et al., 2015).
. […]

DLC1 mRNA in C4-2 cells = assay: In situ HDACi activity: DLC1 mRNA in C4-2 cells; format: cell-based; conditions: 48 h, normalized to GAPDH mRNA, FIG. 2F
Protocol: as §1, §2, §3
. […]

Hsp90 = assay: Western blot of Hsp90 protein in C4-2 cells; conditions: 1 μM to 10 μM, 24 h, relative to GAPDH, FIG. 4B
Protocol: (§9) Cells were then harvested for western blot analysis using antibody to AR (4A), HSP90 (4B), Acetyl-Lysine (4C) or GAPDH (loading control). ImageJ software was used to determine the intensities of the bands relative to the vehicle control for each protein. The values were then divided by the values for GAPDH within the same samples.
(§10) Western Blot Analysis. Cells were washed once with phosphate buffered saline (PBS) and then lysed with RIPA buffer (150 mM NaCl, 1% Nonidet P-40, 0.5% sodium deoxycholate, 0.1% SDS, 50 mM Tris of pH 8.0) containing a protease inhibitor cocktail (Pierce, Thermo Fisher Scientific). The cell lysates were then incubated on ice for 40 minutes. Total protein concentrations were estimated using the Bradford Assay (Bio-Rad). Protein samples (10-40 ug) were heated at 95° C. for 5 minutes and resolved by electrophoresis on 8% polyacrylamide-SDS gels and electrophoretically transferred to PVDF membranes (Millipore, Billerica, Mass.). The membranes were then probed overnight at 4° C. with the appropriate primary antibody followed by the appropriate horseradish peroxidase-conjugated secondary antibody.

C4-2 cells = assay: MTT cell viability assay, C4-2 cells; format: cell-based
Protocol: (§4) (6A) C4-2 cells were seeded in 96-well plates and 24 h later, they were treated with the indicated compounds (0.1 μM-10 μM) or with vehicle (DMSO). Cell viability was measured by the MTT assay on Days 0 and 3 of treatment. EC50 values were calculated from nonlinear regression plots using GraphPad Prism5 software. […] Cell viability was measured by the MTT assay on Days 0 and 3 of treatment. […] Cell viability was measured by the MTT assay on Days 0 and 3 of treatment. […] (6D) 22Rv1 cells were infected with AR shRNA lentivirus, or control shRNA. 72 h after infection, cells were plated and viable cells were measured by the MTT assay on the indicated days (6D, bottom). Cells were also harvested for western blot analysis and probed with antibody to AR, which was also reactive with the AR splice variant AR-V7 (6D, top). (6E) 22Rv1 cells were seeded in 96-well plates and 24 h later, they were treated with the indicated compounds (0.1 μM-10 μM) or with vehicle (DMSO). Cell viability was measured by the MTT assay on Days 0 and 3 of treatment. EC50 values were calculated from nonlinear regression plots using GraphPad Prism5 software.
(§5) Cell Proliferation Assay. Cells were trypsinized and 6000 cells/well were seeded in 96-well plates coated with poly-D-lysine. The cells were seeded in phenol red-free medium supplemented with 10% FBS, 100 units/ml penicillin, 100 μg/ml streptomycin, 2 mM L-glutamine mixture and sodium pyruvate (1 mM) for C4-2 cells and phenol red-free medium supplemented with 10% FBS, 100 units/ml penicillin, 100 μg/ml streptomycin and 2 mM L-glutamine mixture for 22Rv1 cells. The cells were grown at 37° C. in 5% CO2. Twenty four hours after seeding in the 96-well plates, the cells were treated with indicated compound or DMSO (vehicle). The culture medium was not changed during the time course of the assay. On Day zero and on Day 3, cell viability was determined using the MTT assay. MTT (10 μL, 5 mg/mL) was added to each well and incubated for 2 h at 37° C. The formazan crystal sediments were dissolved in 100 μL of DMSO, and the absorbance at 570 nm was measured using the BioTek Synergy 2 Microplate Reader (BioTek, Winooski, Vt.). […] IC50 values were calculated from nonlinear […] plots using GraphPad Prism5 software.

[1] = tested on: 55 KDa polypeptide (putative Hsp90 fragment); assay: Western blot of acetylated lysine in C4-2 cells; conditions: 24 h, acetylated lysine antibody, FIG. 4C
Protocol: as §9, §10

p21 mRNA in C4-2 cells = assay: p21 mRNA induction in C4-2 cells; conditions: 48 h, FIG. 5B
p21 mRNA in LNCaP cells = assay: p21 mRNA induction in LNCaP cells; conditions: 10 μM, 48 h, FIG. 5A
[2] = tested on: AR chromatin association at KLK3 ARE enhancer elements; assay: ChIP of AR at KLK3 enhancer in C4-2 cells; conditions: compound 10 μM, R1881 1 nM or 10 nM, 2 h, FIG. 3C
Protocol: (3C) C4-2 cells plated in hormone-depleted medium were treated with either vehicle, R1881, or the indicated compound for 2 h. Cells were harvested and subjected to ChIP using AR antibody. Taqman probes targeting ARE enhancer elements associated with the KLK3 gene were used to quantify the immunoprecipitated chromatin.
Chromatin Immunoprecipitation (ChIP). […] The ChIP signals were measured by quantitative real time PCR analysis of the immunoprecipitated products.
As a target site for the ChIP assay, the well-established AR binding enhancer elements located 4 kb upstream of the transcription initiation site of the KLK3 gene was chosen.

[3] = tested on: HDACs from Hela cell nuclear extract; format: biochemical; conditions: HeLa cell nuclear extract; tested at 10 μM and 25 μM; FIG. 2B
Protocol: (§6) FIGS. 2A-2F show measurement of intrinsic and in situ HDACi activities. […] IC50 values were calculated from nonlinear regression plots using GraphPad Prism5 software. […] Recombinant HDAC6 was incubated with each drug at the indicated concentrations. IC50 values were calculated from nonlinear regression plots using GraphPad Prism5 software.
(§7) HDAC activity assay. In vitro HDAC inhibition was measured by using the HDAC fluorimetric assay/drug discovery Kit (Enzo Life Sciences, BML-AK500) and the HDAC6 fluorometric drug discovery kit (Enzo Life Sciences, BML-AK516) following the manufacturer's protocols and instructions. IC50 values were calculated from nonlinear […] plots using GraphPad Prism5 software.
(§8) HDAC1 and HDAC2 are enriched in nuclear extracts whereas HDAC6 is a cytosolic enzyme that is the principal modulator of the acetylation status of Hsp90. […] Again, TSA served as the positive control in FIG. 2D.

human recombinant HDAC6 = molecular target: T1, human recombinant HDAC6 (Homo sapiens, UniProt Q9UBN7); assay: HDAC6 fluorometric assay, recombinant enzyme; format: biochemical; conditions: tested at 10 μM and 25 μM; FIG. 2D
T1 construct: purchased Enzo Life Sciences BML-AK516
T1 sequence (Q9UBN7 1-1215): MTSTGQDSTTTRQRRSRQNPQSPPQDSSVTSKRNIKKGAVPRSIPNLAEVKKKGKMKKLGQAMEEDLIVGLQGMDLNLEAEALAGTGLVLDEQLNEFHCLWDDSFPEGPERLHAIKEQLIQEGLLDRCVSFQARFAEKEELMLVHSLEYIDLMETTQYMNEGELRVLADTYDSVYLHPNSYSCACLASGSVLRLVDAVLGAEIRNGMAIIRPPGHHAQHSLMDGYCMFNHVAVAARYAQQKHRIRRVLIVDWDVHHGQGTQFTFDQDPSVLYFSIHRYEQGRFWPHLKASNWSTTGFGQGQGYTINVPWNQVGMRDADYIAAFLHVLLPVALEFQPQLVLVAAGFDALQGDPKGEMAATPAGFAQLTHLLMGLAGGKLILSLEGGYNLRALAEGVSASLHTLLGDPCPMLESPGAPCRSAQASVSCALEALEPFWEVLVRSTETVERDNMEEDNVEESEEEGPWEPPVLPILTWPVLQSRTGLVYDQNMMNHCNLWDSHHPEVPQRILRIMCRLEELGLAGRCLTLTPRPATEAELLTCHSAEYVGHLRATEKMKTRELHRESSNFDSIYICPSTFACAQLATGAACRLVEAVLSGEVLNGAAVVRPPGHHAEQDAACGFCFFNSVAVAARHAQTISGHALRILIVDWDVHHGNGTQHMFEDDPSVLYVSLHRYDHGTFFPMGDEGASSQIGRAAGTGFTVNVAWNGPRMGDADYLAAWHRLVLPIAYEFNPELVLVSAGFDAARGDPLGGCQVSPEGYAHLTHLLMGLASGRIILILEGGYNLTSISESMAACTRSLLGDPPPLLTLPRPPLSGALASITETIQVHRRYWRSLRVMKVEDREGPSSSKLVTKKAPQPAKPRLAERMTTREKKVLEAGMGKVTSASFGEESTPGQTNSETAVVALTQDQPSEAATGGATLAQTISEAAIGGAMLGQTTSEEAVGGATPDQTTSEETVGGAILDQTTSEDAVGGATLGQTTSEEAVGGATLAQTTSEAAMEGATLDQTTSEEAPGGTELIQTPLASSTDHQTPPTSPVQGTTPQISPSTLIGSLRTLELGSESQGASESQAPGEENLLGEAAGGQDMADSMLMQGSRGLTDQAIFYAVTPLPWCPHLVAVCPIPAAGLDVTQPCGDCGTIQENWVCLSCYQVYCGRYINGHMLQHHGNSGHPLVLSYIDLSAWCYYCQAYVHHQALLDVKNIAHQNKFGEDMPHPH
Protocol: as §6, §7, §8

22Rv1 cells = assay: MTT cell viability assay, 22Rv1 cells; format: cell-based; conditions: Day 3, 0.1 μM-10 μM, FIG. 6E
Protocol: as §4, §5

Compound | DLC1 mRNA expression (DLC1 mRNA in LNCaP cells) | DLC1 mRNA expression (DLC1 mRNA in C4-2 cells) | Hsp90 protein level (degradation) (Hsp90) | cell death (viable cells below the number on Day 0) (C4-2 cells; C4-2 cells, 5 μM, MTT Day 3 relative to Day 0, FIG. 6C) | hyper-acetylation of a 55 KDa polypeptide [1] | p21 mRNA expression (p21 mRNA in C4-2 cells) | p21 mRNA expression (p21 mRNA in LNCaP cells) | chromatin association of AR (ChIP signal) [2] | inhibition of nuclear HDAC activity [3] | effect on C4-2 cell growth (C4-2 cells; MTT, Day 3, up to 10 μM, FIG. 6A) | inhibitory activity against HDAC6 (human recombinant HDAC6) | effect on growth of 22Rv1 cells (22Rv1 cells)
O=C(CCCCCCC(=O)Nc1ccccc1)NO [SAHA, suberanilohydroxamic acid, reference compound] | strongly up-regulated | strongly up-regulated | a decrease in Hsp90 was evident at the higher doses | caused cell death | hyper-acetylation of a 55 KDa polypeptide | induced p21 mRNA | induced p21 mRNA | basal ChIP signal | – | – | – | –
CCOC(=O)/C=C/c1ccc(N2C(=S)N(c3ccc(C#N)c(C(F)(F)F)c3)C(=O)C2(C)C)cc1F [Compound 1002, (E)-ethyl-3-(4-(3-(4-cyano-3-(trifluoromethyl)phenyl)-5,5-dimethyl-4-oxo-2-thioxoimidazolidin-1-yl)-2-fluorophenyl)acrylate] | – | – | – | – | – | – | – | – | did not inhibit nuclear HDAC activity even up to a concentration of 25 μM | unable to appreciably inhibit C4-2 cell growth | did not show significant inhibitory activity | modest effect at high concentrations
